Reference: US5037960A, “Inhibitor of protein synthesis, process for its isolation, its use and pharmaceutical compositions in which it is present” (priority 1986, dated 1991)

System: protein synthesis (subcellular fractions of rat liver)
Format: biochemical
Conditions: compared with native trichokirin
Excerpt: The in vitro protocol uses appropriately complemented subcellular fractions of rat liver capable of incorporating ^14 C-phenylalanine in the presence of an artificial messenger RNA: polyuridylic acid.
The procedure employed for preparing the subcellular fractions and measuring the incorporation of ^14 C-phenylalanine is an adaptation of the method described in BBA 312, 608-615 (1973), using both a microsomal fraction and a cytosol fraction of the rat hepatocytes. The sample containing the trichokirin is introduced in the form of a solution appropriately diluted in a 50 mM tris-HCl buffer, pH 7.6, containing 0.2% of 2-mercaptoethanol and 15 micrograms/ml of bovine serum albumin. The count data are used to calculate, relative to a reference medium without inhibitor, the percentage inhibition of the incorporation of ^14 C-phenylalanine for each reaction medium.
The values obtained together make it possible to determine the concentration of trichokirin (or IC50) which inhibits the incorporation of ^14 C-phenylalanine by 50% under the experimental conditions.

mercaptosuccinoyl-trichokirin [modified trichokirin]
effect of the modification on activity: does not cause a significant loss of activity
